Reference: ChEMBL document CHEMBL1201862, “PubChem BioAssay data set” (2004)
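All cell lines were grown in 96-well plates and treated with compound for 48 hours. Here, GI50 denotes the concentration required for 50% inhibition of growth.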 Calls of active or inactive are those of the source. Cut-off read from the data, not from the text of the source: active = GI50 up to about 1.1 µM and inactive = higher.

Legend:
Test in all cases: DTP human tumour cell line panel, 48 h
M14 = test system: M14
786-0 = test system: 786-0
A549 = test system: A549
UACC-257 = test system: UACC-257
U-251 = test system: U-251
ACHN = test system: ACHN
HCT-116 = test system: HCT-116
SW-620 = test system: SW-620
OVCAR-5 = test system: OVCAR-5
SK-MEL-2 = test system: SK-MEL-2
NCI-H23 = test system: NCI-H23
SNB-19 = test system: SNB-19
UACC-62 = test system: UACC-62
SNB-75 = test system: SNB-75
HCC 2998 = test system: HCC 2998

## Oc1ccc(I)c2cccnc12
M14
  GI50: 10.4 µM (inactive)
786-0
  GI50: 4.88 µM (inactive)
A549
  GI50: 5.52 µM (inactive)
UACC-257
  GI50: 16.3 µM (inactive)
U-251
  GI50: 6.78 µM (inactive)
ACHN
  GI50: 7.13 µM (inactive)
HCT-116
  GI50: 4.71 µM (inactive)
SW-620
  GI50: 4.43 µM (inactive)
OVCAR-5
  GI50: 52.5 µM (inactive)
SK-MEL-2
  GI50: 11.9 µM (inactive)
NCI-H23
  GI50: 8.38 µM (inactive)
SNB-19
  GI50: 17.8 µM (inactive)

## CCC1C2C=CC(CC2)N1S(=O)(=O)c1ccc(C)cc1 (stereo unspecified)
M14
  GI50: 31 µM (inactive)
786-0
  GI50: 31.9 µM (inactive)
A549
  GI50: 28.2 µM (inactive)
UACC-257
  GI50: 20.9 µM (inactive)
UACC-62
  GI50: 11.2 µM (inactive)
ACHN
  GI50: 35.9 µM (inactive)
HCT-116
  GI50: 30.9 µM (inactive)
SNB-75
  GI50: > 10 µM (inactive)
SW-620
  GI50: 16.8 µM (inactive)
OVCAR-5
  GI50: 22.3 µM (inactive)
SK-MEL-2
  GI50: 14 µM (inactive)
SNB-19
  GI50: 24.4 µM (inactive)

## O=C(N/C(=C\c1cc(Cl)ccc1Cl)c1nc2ccccc2[nH]1)c1ccccc1
M14
  GI50: 27.9 µM (inactive)
786-0
  GI50: 18 µM (inactive)
A549
  GI50: 35.1 µM (inactive)
U-251
  GI50: 29.7 µM (inactive)
UACC-62
  GI50: 38.9 µM (inactive)
ACHN
  GI50: 33.3 µM (inactive)
HCC 2998
  GI50: 17.9 µM (inactive)
SW-620
  GI50: 22 µM (inactive)
OVCAR-5
  GI50: 52.2 µM (inactive)
SK-MEL-2
  GI50: 52 µM (inactive)
NCI-H23
  GI50: 23.8 µM (inactive)
SNB-19
  GI50: 46.9 µM (inactive)

## COc1cc(OC)c(OC)cc1/C=N/NC(=O)N/N=C/c1cc(OC)c(OC)cc1OC
M14
  GI50: > 100 µM (inactive)
786-0
  GI50: > 100 µM (inactive)
A549
  GI50: > 100 µM (inactive)
UACC-257
  GI50: > 100 µM (inactive)
U-251
  GI50: > 100 µM (inactive)
UACC-62
  GI50: > 100 µM (inactive)
ACHN
  GI50: > 100 µM (inactive)
HCT-116
  GI50: > 100 µM (inactive)
SNB-75
  GI50: 15.8 µM (inactive)
SW-620
  GI50: > 100 µM (inactive)
OVCAR-5
  GI50: > 100 µM (inactive)
SK-MEL-2
  GI50: > 100 µM (inactive)
NCI-H23
  GI50: > 100 µM (inactive)
SNB-19
  GI50: > 100 µM (inactive)

## CCN(CC)c1ccc2c(c1)Oc1ccc(N(CC)CC)cc1C21Oc2ccccc2-c2c1c1ccccc1n2CC (stereo unspecified)
M14
  GI50: 3.07 µM (inactive)
786-0
  GI50: 4.05 µM (inactive)
A549
  GI50: 3.18 µM (inactive)
UACC-257
  GI50: 2.89 µM (inactive)
U-251
  GI50: 1.68 µM (inactive)
UACC-62
  GI50: 1.85 µM (inactive)
ACHN
  GI50: 1.32 µM (inactive)
HCT-116
  GI50: 1.05 µM (active)
SNB-75
  GI50: > 100 µM (inactive)
HCC 2998
  GI50: 3.07 µM (inactive)
SW-620
  GI50: 3.58 µM (inactive)
NCI-H23
  GI50: 2.07 µM (inactive)
SNB-19
  GI50: 6.87 µM (inactive)

## COC1OC(CO)C(O)C1N (stereo unspecified)
M14
  GI50: > 100 µM (inactive)
786-0
  GI50: > 100 µM (inactive)
A549
  GI50: > 100 µM (inactive)
UACC-257
  GI50: > 100 µM (inactive)
U-251
  GI50: > 100 µM (inactive)
UACC-62
  GI50: > 100 µM (inactive)
ACHN
  GI50: > 100 µM (inactive)
HCT-116
  GI50: > 100 µM (inactive)
SNB-75
  GI50: > 100 µM (inactive)
SW-620
  GI50: > 100 µM (inactive)
OVCAR-5
  GI50: > 100 µM (inactive)
NCI-H23
  GI50: > 100 µM (inactive)
SNB-19
  GI50: > 100 µM (inactive)

## CN1CCC(O)C(CNC23CC4CC(CC(C4)C2)C3)C1 (stereo unspecified)
786-0
  GI50: > 100 µM (inactive)
A549
  GI50: > 100 µM (inactive)
UACC-257
  GI50: > 100 µM (inactive)
U-251
  GI50: > 100 µM (inactive)
UACC-62
  GI50: > 100 µM (inactive)
ACHN
  GI50: > 100 µM (inactive)
SW-620
  GI50: > 100 µM (inactive)
OVCAR-5
  GI50: > 100 µM (inactive)
SK-MEL-2
  GI50: > 100 µM (inactive)
NCI-H23
  GI50: > 100 µM (inactive)
SNB-19
  GI50: > 100 µM (inactive)

## Cc1cc(N(CCC#N)CCC#N)ccc1/C=C1N=C(/C=C\c2ccccc2)N(c2ccc(C(=O)O)cc2)C\1=O
M14
  GI50: > 100 µM (inactive)
786-0
  GI50: > 100 µM (inactive)
A549
  GI50: > 100 µM (inactive)
UACC-257
  GI50: > 100 µM (inactive)
U-251
  GI50: > 100 µM (inactive)
UACC-62
  GI50: > 100 µM (inactive)
ACHN
  GI50: > 100 µM (inactive)
HCT-116
  GI50: > 100 µM (inactive)
SNB-75
  GI50: > 100 µM (inactive)
SW-620
  GI50: > 100 µM (inactive)
OVCAR-5
  GI50: > 100 µM (inactive)
SK-MEL-2
  GI50: > 100 µM (inactive)
NCI-H23
  GI50: > 100 µM (inactive)
SNB-19
  GI50: > 100 µM (inactive)
